For orientation: half-life means how long it takes for the measured level to halve.

Our source for the half-life and IC50 values is patent US20260217767A1, “NOVEL A4B7 THIOETHER PEPTIDE DIMER ANTAGONISTS” (Protagonist Therapeutics, Inc., priority 2014, published 2026).

The nature of data set [1]: Simulated Intestinal Fluid (SIF) Stability Assay. As to conditions: pig, 37° C.; for half-life at 22 μM: simulated intestinal fluid (SIF) with 1% porcine pancreatin, pH 6.5, porcine pancreatin; for half-life: porcine pancreatin. It counts as in vitro ADME. Summed up:
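Percent peptide remaining over time was measured by LC-MS/MS as the peak-area ratio to internal standard, and a first-order decay fit gave half-life. Digests contained 22 μM peptide and 1% pancreatin in pH 6.5 FaSSIF buffer at 37° C. Aliquots were quenched in organic solvent with formic acid.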

In a further data set the target is T1, α4β1 (Homo sapiens, UniProt P05556+P13612).
T1 construct: purchased R&D Systems 5668-A4
In words: α4β1-VCAM Competition ELISA. It counts as binding. As to conditions: read-out: ELISA A4B1. The procedure: α4β1-VCAM Competition ELISA
A Nunc MaxiSorp plate was coated with rh VCAM-1/CD106 Fc chimera (R&D #862-VC) at 400 ng/well in 50 ul per well in 1×PBS and incubated overnight at 4° C. The solution was removed by shaking and then blocked with 250 ul of 1% BSA in 1×PBS per well. The wells were then incubated at room temperature for 1 hr with shaking. Each well was then washed once with wash buffer (50 mM Tris-HCl pH7.6, 100 mM NaCL, 1 mM MnCl2 or MgCl2, 0.05% Tween-20). 25 ul of serial dilutions of peptides starting at 200 μM in assay buffer (Assay buffer: 50 mM Tris-HCl pH7.6, 100 mM NaCl, 1 mM MnCl2 or MgCl2, 0.05% Tween-20) was added to each well. Additionally, 25 μl of α4β1 (R&D Systems #5668-A4) was added to each well at a fixed concentration of 120 nM. The final peptide and α4β1 concentrations were 100 μM and 60 nM, respectively. The plates were then incubated at 37° C. for 2 hr. The solution was then removed by shaking and each well was washed three times with wash buffer. 50 ul of 9F10 antibody at 4 ug/ml (purified mouse anti-human CD49d, BD Bioscience Cat #555502) was then added to each well, and the plate was incubated at room temperature for Ihr with shaking. The solution was again removed by shaking, and each well was washed three times with wash buffer. 50 μl of peroxidase-conjugated AffiniPure Goat anti-mouse IgG (Jackson immune research cat #115-035-003) diluted in 1:5000 in assay buffer was added to each well. The plate was incubated at room temperature for 30 min with shaking. Each well was then washed 3 times with wash buffer. 100 ul of TMB was then added to each well and closely observe during developing time. The reaction was stepped with 2N H2SO4 and absorbance was read at 450 nm.
A general note: ELISA stands for enzyme-linked immunosorbent assay.

Another data set addresses Jurkat E6.1 cells (Homo sapiens, UniProt P05556+P13612). In words: α4β1-VCAM Cell Adhesion Assay. It counts as cell-based. Conditions: thioether peptide dimers, Table 7; read-out: Cell Adhesion A4B1. The procedure:
α4β1-VCAM Cell Adhesion Assay
Jurkat E6.1 cells (Sigma #88042803) were cultured in RPMI 1640 HEPES medium (Invitrogen #22400-089) supplemented with 10% serum (Fetal Bovine Serum, Invitrogen #16140-071), 1 mM sodium pyruvate (Invitrogen #11360-070), 2 mM L-glutamine (Invitrogen #25030-081) and Penicillin-Streptomycin (Invitrogen #15140-122) at 100 units of penicillin and 100 μg of streptomycin per ml. The cells were washed two times in DMEM medium (ATCC #30-2002) supplemented with 0.1% BSA, 10 mM HEPES pH 7 and 1 mM MnCl2. The cells were re-suspended in supplemented DMEM medium at a density of 4×10^6 cells/ml.
A Nunc MaxiSorp plate was coated with rh VCAM-1/CD106 Fc chimera (R&D #862-VC) at 400 ng per well in 50 μl per well in 1×PBS and incubated at 4° C. overnight. The solution was then removed by shaking, blocked with 250 μl per well PBS containing 1% BSA, and incubated at 37° C. for 1 hr. The solution was removed by shaking. Peptides were diluted by serial dilution in a final volume of 50 μl per well (2× concentration). To each well, 50 μl of cells (200,000 cells) were added and the plate was incubated at 37° C., 5% CO2 for 30-45 min to allow cell adhesion. The wells were washed manually three times (100 μl per wash) with supplemented DMEM. After the final wash, 100 μl/well of supplemented DMEM and 10 ul/well of MTT reagent (ATTC cat #30-1010K) were added. The plate was incubated at 37° C., 5% CO2 for 2-3 hrs until a purple precipitate is visible. 100 ul of Detergent Reagent (ATTC cat #30-1010K) is added to each well. The plate was covered from the light, wrapped in Parafilm to prevent evaporation, and left overnight at room temperature in the dark. The plate was shaken for 5 min and the absorbance at 570 nm is measured. To calculate the dose response, the absorbance value of control wells not containing cells was subtracted from each test well.

Where [2] appears, read: thioether peptide dimers, Table 7.
Where [3] appears, read: thioether monomer peptides, Table 6.

Read-outs that look alike come from different tables or passages of the source. *1 amine or outer side, *2 acyl side, *3 side chain or, on linkers, in order; H or OH if unused. Where a SMILES comes first, the peptide text is derived from it. Bridges are numbered along the chain shown (N, C = ends). Roman numbers before positions name the chains, in order. [ ]: non-standard residue; d: D form. Phe(4-CF3) = N[C@@H](Cc1ccc(C(F)(F)F)cc1)C(=O)O; Diglycolyl = O=C(COCC(=O)[*:2])[*:1]; NMeR = CN[C@@H](CCCNC(=N)N)C(=O)O; β3hE = N[C@@H](CCC(=O)O)CC(=O)O; X1 = O=C(c1ccccc1C[*:2])[*:1]; Pen = CC(C)(S)[C@H](N)C(=O)O; hCys = N[C@@H](CCS)C(=O)O

T1 sequence (P13612 34-977 limits assumed): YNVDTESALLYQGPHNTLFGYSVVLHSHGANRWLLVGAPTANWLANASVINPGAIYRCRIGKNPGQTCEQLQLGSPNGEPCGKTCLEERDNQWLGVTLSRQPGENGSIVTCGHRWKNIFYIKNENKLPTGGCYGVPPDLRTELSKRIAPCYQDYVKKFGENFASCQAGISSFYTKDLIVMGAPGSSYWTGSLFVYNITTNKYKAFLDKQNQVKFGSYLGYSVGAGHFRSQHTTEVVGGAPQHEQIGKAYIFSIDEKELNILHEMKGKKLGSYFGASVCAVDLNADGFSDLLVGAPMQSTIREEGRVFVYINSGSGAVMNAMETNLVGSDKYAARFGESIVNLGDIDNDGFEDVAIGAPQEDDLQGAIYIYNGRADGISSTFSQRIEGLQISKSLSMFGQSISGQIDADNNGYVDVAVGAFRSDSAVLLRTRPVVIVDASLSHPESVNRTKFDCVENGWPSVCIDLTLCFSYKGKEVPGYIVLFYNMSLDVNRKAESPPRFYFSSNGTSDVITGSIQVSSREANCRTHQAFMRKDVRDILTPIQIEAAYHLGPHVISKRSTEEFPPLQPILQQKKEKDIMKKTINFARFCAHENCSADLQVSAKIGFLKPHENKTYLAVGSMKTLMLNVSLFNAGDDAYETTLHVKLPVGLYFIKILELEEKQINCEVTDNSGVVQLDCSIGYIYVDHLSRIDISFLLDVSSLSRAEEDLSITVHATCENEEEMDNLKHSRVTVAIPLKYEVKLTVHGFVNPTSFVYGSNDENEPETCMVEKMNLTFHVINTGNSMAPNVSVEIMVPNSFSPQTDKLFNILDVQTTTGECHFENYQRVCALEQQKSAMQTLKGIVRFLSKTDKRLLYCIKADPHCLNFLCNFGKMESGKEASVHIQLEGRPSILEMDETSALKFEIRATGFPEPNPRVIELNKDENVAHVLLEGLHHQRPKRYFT
T1 sequence (P05556 21-728 limits assumed): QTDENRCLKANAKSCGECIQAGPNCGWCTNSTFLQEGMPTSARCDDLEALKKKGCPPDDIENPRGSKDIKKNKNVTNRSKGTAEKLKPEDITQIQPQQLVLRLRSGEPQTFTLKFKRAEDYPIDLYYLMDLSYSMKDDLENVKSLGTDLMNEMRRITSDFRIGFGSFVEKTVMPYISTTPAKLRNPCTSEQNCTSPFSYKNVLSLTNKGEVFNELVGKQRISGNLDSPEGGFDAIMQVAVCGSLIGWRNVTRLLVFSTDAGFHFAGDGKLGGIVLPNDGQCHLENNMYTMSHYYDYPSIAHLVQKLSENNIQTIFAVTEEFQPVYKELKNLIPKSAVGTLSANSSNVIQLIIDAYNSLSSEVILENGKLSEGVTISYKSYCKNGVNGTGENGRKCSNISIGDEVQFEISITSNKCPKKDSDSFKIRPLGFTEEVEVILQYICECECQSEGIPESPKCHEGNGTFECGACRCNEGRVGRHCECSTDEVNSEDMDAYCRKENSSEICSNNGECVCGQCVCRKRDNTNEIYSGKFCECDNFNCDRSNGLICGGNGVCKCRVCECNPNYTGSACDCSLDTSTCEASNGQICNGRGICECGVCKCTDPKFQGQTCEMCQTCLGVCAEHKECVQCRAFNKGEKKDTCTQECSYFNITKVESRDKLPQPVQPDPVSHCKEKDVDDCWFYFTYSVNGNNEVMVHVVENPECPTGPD
Sequence of Jurkat E6.1 cells (P13612 34-1032): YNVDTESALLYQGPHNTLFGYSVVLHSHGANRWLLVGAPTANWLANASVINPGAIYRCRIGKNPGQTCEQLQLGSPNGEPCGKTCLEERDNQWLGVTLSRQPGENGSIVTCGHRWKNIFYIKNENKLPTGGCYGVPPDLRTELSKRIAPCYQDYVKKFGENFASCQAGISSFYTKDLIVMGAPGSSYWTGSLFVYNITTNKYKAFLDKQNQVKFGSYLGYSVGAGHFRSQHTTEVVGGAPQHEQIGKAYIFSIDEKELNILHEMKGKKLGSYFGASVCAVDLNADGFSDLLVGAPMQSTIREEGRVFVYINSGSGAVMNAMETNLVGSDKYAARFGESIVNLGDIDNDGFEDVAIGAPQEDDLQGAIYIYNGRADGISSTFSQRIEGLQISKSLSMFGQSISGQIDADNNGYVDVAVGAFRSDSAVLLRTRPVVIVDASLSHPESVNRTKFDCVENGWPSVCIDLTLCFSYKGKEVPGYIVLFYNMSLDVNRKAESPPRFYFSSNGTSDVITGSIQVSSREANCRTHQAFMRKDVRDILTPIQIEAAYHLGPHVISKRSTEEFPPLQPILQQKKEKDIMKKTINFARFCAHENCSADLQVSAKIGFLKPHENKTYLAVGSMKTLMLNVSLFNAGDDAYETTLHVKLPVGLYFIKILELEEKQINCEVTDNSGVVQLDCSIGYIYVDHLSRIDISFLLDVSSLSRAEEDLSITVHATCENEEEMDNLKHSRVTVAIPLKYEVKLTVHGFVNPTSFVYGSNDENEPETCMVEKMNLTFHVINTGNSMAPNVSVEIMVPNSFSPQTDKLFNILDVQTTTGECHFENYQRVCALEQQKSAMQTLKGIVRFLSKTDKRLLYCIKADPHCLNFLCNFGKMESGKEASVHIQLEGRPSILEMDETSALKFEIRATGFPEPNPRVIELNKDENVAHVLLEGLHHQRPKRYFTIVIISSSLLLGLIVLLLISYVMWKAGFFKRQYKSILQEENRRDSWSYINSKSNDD
Sequence of Jurkat E6.1 cells (P05556 21-798): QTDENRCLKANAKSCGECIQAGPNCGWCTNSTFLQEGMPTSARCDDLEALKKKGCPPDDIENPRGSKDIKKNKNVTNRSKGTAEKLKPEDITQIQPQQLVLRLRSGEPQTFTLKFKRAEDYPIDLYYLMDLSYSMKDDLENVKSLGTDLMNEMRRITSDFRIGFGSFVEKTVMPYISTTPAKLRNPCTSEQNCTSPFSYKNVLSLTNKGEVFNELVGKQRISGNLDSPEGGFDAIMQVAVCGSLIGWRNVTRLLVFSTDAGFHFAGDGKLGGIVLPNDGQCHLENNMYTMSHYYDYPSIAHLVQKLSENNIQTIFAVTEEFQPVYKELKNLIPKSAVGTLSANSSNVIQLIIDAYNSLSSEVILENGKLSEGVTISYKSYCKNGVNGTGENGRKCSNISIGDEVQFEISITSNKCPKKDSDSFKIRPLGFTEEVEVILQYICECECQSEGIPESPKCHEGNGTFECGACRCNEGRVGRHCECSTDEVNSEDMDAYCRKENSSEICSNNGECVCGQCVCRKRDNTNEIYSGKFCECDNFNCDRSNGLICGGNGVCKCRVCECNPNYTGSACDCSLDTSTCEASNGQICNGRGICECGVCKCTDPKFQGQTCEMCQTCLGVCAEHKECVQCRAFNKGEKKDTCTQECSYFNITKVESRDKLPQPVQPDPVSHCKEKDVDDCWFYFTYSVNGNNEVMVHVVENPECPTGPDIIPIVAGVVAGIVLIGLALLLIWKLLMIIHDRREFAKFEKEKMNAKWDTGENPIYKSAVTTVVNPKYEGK

For the compound `CC(C)C[C@@H]1NC(=O)[C@H]([C@@H](C)O)NC(=O)[C@H](CC(=O)O)NC(=O)[C@H](CO)NC(=O)[C@H](CCCNC(=N)N)N(C)C(=O)C(C)SC[C@@H](C(=O)N[C@@H](Cc2c[nH]c3ccccc23)C(=O)N[C@H](CCCCN)C(N)=O)NC1=O` (single isomer, unassigned) [compound 144], the half-life at 22 μM in data set [1] (dimers, Table 7) was below 20 min. Further, the IC50 at α4β1 (setting [2]) was above 1000 nM. For the compound `CC(C)C[C@@H]1NC(=O)[C@H]([C@@H](C)O)NC(=O)[C@H](CC(=O)O)NC(=O)[C@H](CO)NC(=O)[C@H](CCCNC(=N)N)N(C)C(=O)c2ccccc2CSC[C@@H](C(=O)N[C@@H](Cc2c[nH]c3ccccc23)C(=O)N[C@@H](CCC(=O)O)C(=O)N[C@H](CCCCN)C(N)=O)NC1=O` [compound 55] (HELM PEPTIDE1{[meR].S.D.T.L.C.W.E.[dK].[am]}|CHEM1{[O=C(c1ccccc1C[*:2])[*:1]]}$PEPTIDE1,CHEM1,1:R1-1:R1|PEPTIDE1,CHEM1,6:R3-1:R2$$$V2.0), the half-life at 22 μM in data set [1] (monomers, Table 6) was 25 min. Besides, the IC50 on α4β1 (setting [3]) was in the range of 100 to 1000 nM. As to `CC(=O)NCCCC[C@@H](NC(=O)[C@@H](CCC(=O)O)NC(=O)[C@H](Cc1c[nH]c2ccccc12)NC(=O)[C@H]1NC(=O)[C@H](CC(C)C)NC(=O)[C@H]([C@@H](C)O)NC(=O)[C@H](CC(=O)O)NC(=O)[C@H](CO)NC(=O)[C@H](CCCNC(=N)N)N(C)C(=O)c2ccccc2CSC1(C)C)C(N)=O` [compound 81] (HELM PEPTIDE1{[meR].S.D.T.L.[Pen].W.[dE].[dK].[am]}|PEPTIDE2{[ac]}|CHEM1{[O=C(c1ccccc1C[*:2])[*:1]]}$PEPTIDE1,PEPTIDE2,9:R3-1:R2|PEPTIDE1,CHEM1,1:R1-1:R1|PEPTIDE1,CHEM1,6:R3-1:R2$$$V2.0), the IC50 on α4β1 (setting [3]) lay within 100 to 1000 nM. With `CC(C)C[C@@H]1NC(=O)[C@H]([C@@H](C)O)NC(=O)[C@H](CC(=O)O)NC(=O)[C@H](CO)NC(=O)[C@H](CCCNC(=N)N)N(C)C(=O)c2ccccc2CSC(C)(C)[C@@H](C(=O)N[C@@H](Cc2ccc3ccccc3c2)C(=O)N[C@H](CCC(=O)O)C(N)=O)NC1=O` [compound 114] (HELM PEPTIDE1{[meR].S.D.T.L.[Pen].[O=C([C@H](Cc1ccc2ccccc2c1)N[*:1])[*:2]].[dE].[am]}|CHEM1{[O=C(c1ccccc1C[*:2])[*:1]]}$PEPTIDE1,CHEM1,1:R1-1:R1|PEPTIDE1,CHEM1,6:R3-1:R2$$$V2.0), the half-life at 22 μM in data set [1] (monomers, Table 6) is above 180 min. Further, the IC50 on α4β1 (setting [3]) was in the range of 25 to 100 nM.

Take `CC(C)C[C@@H]1NC(=O)[C@H]([C@@H](C)O)NC(=O)[C@H](CC(=O)O)NC(=O)[C@H](CO)NC(=O)[C@H](CCCNC(=N)N)N(C)C(=O)CSC[C@@H](C(=O)N[C@@H](Cc2c[nH]c3ccccc23)C(=O)N[C@H](CCCCNC(=O)COCC(=O)NCCCC[C@@H](NC(=O)[C@H](Cc2c[nH]c3ccccc23)NC(=O)[C@@H]2CSCC(=O)N(C)[C@@H](CCCNC(=N)N)C(=O)N[C@@H](CO)C(=O)N[C@@H](CC(=O)O)C(=O)N[C@@H]([C@@H](C)O)C(=O)N[C@@H](CC(C)C)C(=O)N2)C(N)=O)C(N)=O)NC1=O` [compound 143]: the IC50 at α4β1 (setting [2]) is above 1000 nM. The compound `CC(C)C[C@@H]1NC(=O)[C@H]([C@@H](C)O)NC(=O)[C@H](CC(=O)O)NC(=O)[C@H](CO)NC(=O)[C@H](CCCNC(=N)N)N(C)C(=O)c2ccccc2CSC[C@H](C(=O)N[C@@H](Cc2c[nH]c3ccccc23)C(=O)N[C@@H](CCC(=O)O)CC(=O)N[C@H](CCCCNC(=O)COCC(=O)NCCCC[C@@H](NC(=O)C[C@H](CCC(=O)O)NC(=O)[C@H](Cc2c[nH]c3ccccc23)NC(=O)[C@H]2CSCc3ccccc3C(=O)N(C)[C@@H](CCCNC(=N)N)C(=O)N[C@@H](CO)C(=O)N[C@@H](CC(=O)O)C(=O)N[C@@H]([C@@H](C)O)C(=O)N[C@@H](CC(C)C)C(=O)N2)C(N)=O)C(N)=O)NC1=O` [compound 156] (I: [NMeR]SDTL[dC]W[β3hE][dK]-NH2 / II: [NMeR]SDTL[dC]W[β3hE][dK]-NH2; linker I:9-II:9 via Diglycolyl; linker I:N-I:6, II:N-II:6 via X1) gave a half-life in data set [1] (dimers, Table 7) above 180 min. Besides, the IC50 was above 100000 nM at Jurkat E6.1 cells and 25 to 100 nM at α4β1 (setting [2]). In data set [1] (dimers, Table 7), `CC(C)C[C@@H]1NC(=O)[C@H]([C@@H](C)O)NC(=O)[C@H](CC(=O)O)NC(=O)[C@H](CO)NC(=O)[C@H](CCCNC(=N)N)N(C)C(=O)c2ccccc2CSCC[C@@H](C(=O)N[C@@H](Cc2c[nH]c3ccccc23)C(=O)N[C@@H](CCC(=O)O)C(=O)N[C@H](CCCCNC(=O)COCC(=O)NCCCC[C@@H](NC(=O)[C@H](CCC(=O)O)NC(=O)[C@H](Cc2c[nH]c3ccccc23)NC(=O)[C@@H]2CCSCc3ccccc3C(=O)N(C)[C@@H](CCCNC(=N)N)C(=O)N[C@@H](CO)C(=O)N[C@@H](CC(=O)O)C(=O)N[C@@H]([C@@H](C)O)C(=O)N[C@@H](CC(C)C)C(=O)N2)C(N)=O)C(N)=O)NC1=O` [compound 157] (I: [NMeR]SDTL[hCys]WE[dK]-NH2 / II: [NMeR]SDTL[hCys]WE[dK]-NH2; linker I:9-II:9 via Diglycolyl; linker I:N-I:6, II:N-II:6 via X1) came in with a half-life below 20 min. On α4β1 (setting [2]), the IC50 fell in the range of 100 to 1000 nM. The like results for `CC(C)C[C@@H]1NC(=O)[C@H]([C@@H](C)O)NC(=O)[C@H](CC(=O)O)NC(=O)[C@H](CO)NC(=O)[C@H](CCCNC(=N)N)N(C)C(=O)c2ccccc2CSC(C)(C)[C@@H](C(=O)N[C@@H](Cc2ccc(C(F)(F)F)cc2)C(=O)N[C@@H](CCC(=O)O)C(=O)N[C@H](CCCCNC(=O)COCC(=O)NCCCC[C@@H](NC(=O)[C@H](CCC(=O)O)NC(=O)[C@H](Cc2ccc(C(F)(F)F)cc2)NC(=O)[C@H]2NC(=O)[C@H](CC(C)C)NC(=O)[C@H]([C@@H](C)O)NC(=O)[C@H](CC(=O)O)NC(=O)[C@H](CO)NC(=O)[C@H](CCCNC(=N)N)N(C)C(=O)c3ccccc3CSC2(C)C)C(N)=O)C(N)=O)NC1=O` [compound 166] (I: [NMeR]SDTL[Pen][Phe(4-CF3)]E[dK]-NH2 / II: [NMeR]SDTL[Pen][Phe(4-CF3)]E[dK]-NH2; linker I:9-II:9 via Diglycolyl; linker I:N-I:6, II:N-II:6 via X1) were, in that order, 30 min and 25 to 100 nM.
